According to the supplement of paper PMC10307832:

How the values were obtained:
Assay in all cases: relative viability (nuclei count vs DMSO), 5 days (fraction); higher = more cells survive
[1] = compound: C1CNCCC1C2=CC(=NN2)C3=CC=NC=C3 + CS(=O)(=O)N1CCN(Cc2cc3nc(-c4cccc5[nH]ncc45)nc(N4CCOCC4)c3s2)CC1 [Pictilisib] (partner 1 µM)
Outline: (§1)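 A single step with final 0.05% Triton X-100, 1% formaldehyde and 1 ug/ml Hoechst fixed the cells and stained nuclei 5 days after treatment. Lung cancer cell lines in 1536-well plates had been treated by pin tool the day after seeding with one drug alone or a fixed anchor-drug dose plus five library-drug doses (not always all listed) in √10 steps, and nuclei were counted on 4× images. Relative viability is the ratio of nuclei in treated wells to nuclei in vehicle wells, taken as the median of duplicate plates.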

[2] = compound: C1CNCCC1C2=CC(=NN2)C3=CC=NC=C3 + Nc1ncn([C@H]2C[C@H](O)[C@@H](CO)O2)c(=O)n1 [Decitabine] (partner 2 µM)
Outline: as §1

[3] = compound: O[C@H]1CC[C@H](Nc2ncc3nc(Nc4c(F)cc(F)cc4F)n([C@H]4CCOC4)c3n2)CC1 [Tanzisertib] + CS(=O)(=O)N1CCN(Cc2cc3nc(-c4cccc5[nH]ncc45)nc(N4CCOCC4)c3s2)CC1 [Pictilisib] (partner 1 µM)
Outline: as §1

[4] = compound: C[C@@H](N)c1ccc(C(=O)Nc2ccnc3[nH]ccc23)cc1 + CS(=O)(=O)N1CCN(Cc2cc3nc(-c4cccc5[nH]ncc45)nc(N4CCOCC4)c3s2)CC1 [Pictilisib] (partner 1 µM)
Outline: as §1

| Cell Line | relative viability ([1]; first compound 0.08 µM) | relative viability ([1]; first compound 2.53 µM) | relative viability ([1]; first compound 8 µM) | relative viability ([2]; first compound 0.08 µM) | relative viability ([2]; first compound 2.53 µM) | relative viability ([2]; first compound 8 µM) | relative viability ([3]; first compound 0.08 µM) | relative viability ([3]; first compound 0.253 µM) | relative viability ([3]; first compound 0.8 µM) | relative viability ([3]; first compound 2.53 µM) | relative viability ([3]; first compound 8 µM) | relative viability ([4]; first compound 0.04 µM) | relative viability ([4]; first compound 0.1265 µM) | relative viability ([4]; first compound 0.4 µM) | relative viability ([4]; first compound 1.265 µM) | relative viability ([4]; first compound 4 µM) | relative viability ([1]; first compound 0.8 µM) | relative viability ([2]; first compound 0.8 µM) |
| --- | --- | --- | --- | --- | --- | --- | --- | --- | --- | --- | --- | --- | --- | --- | --- | --- | --- | --- |
| HCC-78 | 0.21 | 0.189 | 0.223 | 0.677 | 0.637 | 0.743 | 0.215 | 0.175 | 0.23 | 0.219 | 0.192 | 0.509 | 0.318 | 0.297 | 0.137 | 0.254 | – | – |
| NCI-H1915 | 1.03 | 0.965 | 0.906 | 0.267 | 0.26 | 0.263 | 1.19 | 0.958 | 0.946 | 0.95 | 0.732 | 1.15 | 0.92 | 0.925 | – | 0.837 | 0.885 | 0.249 |
